# Test results reported in PubChem BioAssay (NCI).
#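 Tested at 5 concentrations; 48 h exposure; 96-well plates; endpoints linearly interpolated, else capped at highest concentration. At the TGI there is no net growth.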 Where a SMILES comes first, the peptide text is derived from it. [ ]: non-standard residue; d: D form. The star is where a group is joined. Bn2Val = CC(C)[C@@H](C(=O)*)N(Cc1ccccc1)Cc1ccccc1; NH(3,4-diMeO-benzyl) = COc1ccc(CN*)cc1OC; NMeV = CN[C@H](C(=O)O)C(C)C
# Legend:
# Test in all cases: DTP human tumour cell line panel, 48 h
# [1] = test system: COLO 205 colon
# [2] = test system: SK-MEL-2 melanoma
# [3] = test system: UACC-62 melanoma
# [4] = test system: SF-268 CNS
# [5] = test system: OVCAR-8 ovarian
# [6] = test system: SNB-19 CNS
# [7] = test system: MALME-3M melanoma
# [8] = test system: U251 CNS
# [9] = test system: IGROV1 ovarian
# [10] = test system: T-47D breast
# [11] = test system: HOP-62 NSCLC
# [12] = test system: HT29 colon
# [13] = test system: OVCAR-3 ovarian
# [14] = test system: HOP-92 NSCLC
# [15] = test system: MDA-N
# [16] = test system: MCF7 breast
# [17] = test system: MOLT-4 leukemia
# [18] = test system: HL-60(TB) leukemia
# [19] = test system: BT-549 breast
# [20] = test system: A498 renal
SMILES,TGI [1],TGI [2],TGI [3],TGI [4],TGI [5],TGI [6],TGI [7],TGI [8],TGI [9],TGI [10],TGI [11],TGI [12],TGI [13],TGI [14],TGI [15],TGI [16],TGI [17],TGI [18],TGI [19],TGI [20]
O=C(O)c1ccc(NNC(=O)c2cccc3c(=O)c4ccccc4[nH]c23)cc1,> 100 µM,> 100 µM,> 100 µM,> 100 µM,> 100 µM,> 100 µM,> 100 µM,> 100 µM,> 100 µM,> 100 µM,> 100 µM,> 100 µM,> 100 µM,> 100 µM,> 100 µM,> 100 µM,> 100 µM,> 100 µM,> 100 µM,
CCN(CC)C(=S)SS(=O)(=O)c1ccc(NC(C)=O)cc1,> 72.1 µM,> 100 µM,> 91.3 µM,> 70.2 µM,29.1 µM,> 100 µM,31.6 µM,44.6 µM,,> 100 µM,42 µM,70.8 µM,> 100 µM,51.3 µM,> 78.8 µM,,,76.4 µM,> 78.4 µM,> 89.5 µM
CCc1ccccc1NC(=O)C(=O)CC(=O)c1sc(Nc2ccccc2Cl)nc1C,52.3 µM,56.1 µM,> 100 µM,> 100 µM,> 100 µM,> 100 µM,,> 100 µM,> 100 µM,> 100 µM,> 100 µM,> 100 µM,61 µM,,94.4 µM,45.9 µM,49.8 µM,> 100 µM,> 100 µM,
COc1ccc(-n2sc3ncc([N+](=O)[O-])cc3c2=O)cc1,> 100 µM,> 100 µM,> 100 µM,> 100 µM,> 100 µM,> 100 µM,> 100 µM,> 100 µM,> 100 µM,> 100 µM,> 100 µM,> 100 µM,> 100 µM,,> 100 µM,> 100 µM,> 100 µM,> 100 µM,> 100 µM,
O=C1OC(CS(=O)(=O)c2ccccc2)CC1O (stereo not given),> 100 µM,> 100 µM,> 100 µM,> 100 µM,> 100 µM,> 100 µM,> 100 µM,> 100 µM,> 100 µM,,> 100 µM,> 100 µM,> 100 µM,,> 100 µM,> 100 µM,> 100 µM,,> 100 µM,> 100 µM
O=Nc1c(NO)ccc2nn(-c3ccccc3)nc12,> 100 µM,> 100 µM,9.21 µM,> 100 µM,> 100 µM,> 100 µM,> 100 µM,> 100 µM,49.4 µM,> 100 µM,> 100 µM,> 100 µM,> 100 µM,> 100 µM,> 100 µM,19.6 µM,74.5 µM,> 100 µM,> 100 µM,
N#CC(c1ccccc1)N(CCOCCOCCN(C(=O)c1cccc2ccccc12)C(C#N)c1ccccc1)C(=O)c1cccc2ccccc12 (stereo not given),> 100 µM,> 100 µM,> 100 µM,> 100 µM,> 100 µM,> 100 µM,> 100 µM,> 100 µM,> 100 µM,> 100 µM,,> 100 µM,> 100 µM,,> 100 µM,> 100 µM,> 100 µM,> 100 µM,> 100 µM,> 100 µM
O=[N+]([O-])c1ccc(C(=Nc2ccccc2)SSC(=Nc2ccccc2)c2ccc([N+](=O)[O-])o2)o1,2.44 µM,6.15 µM,3.4 µM,4.4 µM,3.75 µM,4.07 µM,5.09 µM,2.24 µM,3.51 µM,5.79 µM,6.23 µM,4.1 µM,3.38 µM,6.22 µM,12.4 µM,,> 24 µM,8.61 µM,3.69 µM,
CC[C@H]1C=CCC[C@@]2(C[C@@H]3CC[C@H]4[C@H](C(=O)OCCCCCCCCCCCCCCCC(=O)N(CCCN)C[C@@H](O)CCN)[C@]5(CCC[C@@H](C)O5)NC(=[N+]34)N2)O1,1.3 µM,2.06 µM,0.412 µM,3.46 µM,2.92 µM,2.93 µM,0.806 µM,1.44 µM,2.02 µM,,2.69 µM,1.48 µM,3.02 µM,1.45 µM,1.51 µM,1.51 µM,1.29 µM,1.35 µM,4.27 µM,3.09 µM
CC(=O)CCC[C@H](C)[C@@H](O)[C@@H]1O[C@H]([C@@]2(C)CCC(=O)O2)C[C@H]1C(=O)O,> 100 µM,> 100 µM,> 100 µM,> 100 µM,> 100 µM,> 100 µM,,> 100 µM,> 100 µM,> 100 µM,> 100 µM,> 100 µM,> 100 µM,,> 100 µM,> 100 µM,> 100 µM,,> 100 µM,
COC(=O)C1(C(=O)OC)CC2=C(S(=O)(=O)c3ccccc3)C[C@H](C#N)[C@H]2C1,> 100 µM,> 100 µM,> 100 µM,> 100 µM,> 100 µM,> 100 µM,> 100 µM,> 100 µM,> 100 µM,> 100 µM,> 100 µM,> 100 µM,,> 100 µM,> 100 µM,> 100 µM,> 100 µM,> 100 µM,,> 100 µM
CCOC(=O)c1ccc(N=c2oc3ccc(OC)cc3cc2-c2nc3ccccc3[nH]2)cc1,> 100 µM,> 100 µM,> 100 µM,> 100 µM,43.2 µM,> 100 µM,> 100 µM,> 100 µM,> 100 µM,> 100 µM,> 100 µM,> 100 µM,> 100 µM,> 100 µM,> 100 µM,> 100 µM,> 100 µM,> 100 µM,> 100 µM,
O=C1C=C2CC[C@H]3[C@@H]4CC[C@H](OC(=O)c5cccc6cc7ccccc7nc56)[C@H]4CC[C@@H]3[C@H]2CC1,> 100 µM,> 100 µM,> 100 µM,> 100 µM,> 100 µM,> 100 µM,> 100 µM,> 100 µM,> 100 µM,,> 100 µM,> 100 µM,> 100 µM,,> 100 µM,> 100 µM,> 100 µM,> 100 µM,> 100 µM,> 100 µM
CC12C(=O)OC(=O)C1(C)C1C=CC2O1 (stereo not given),> 100 µM,> 100 µM,> 100 µM,> 100 µM,> 100 µM,> 100 µM,> 100 µM,> 100 µM,> 100 µM,,,> 100 µM,99 µM,,> 100 µM,> 100 µM,> 100 µM,> 100 µM,> 100 µM,> 100 µM
CC1c2cc(c3c(c2O)CN([C@@H](C)C2CCCCC2)CO3)C(C)c2cc(c3c(c2O)CN([C@@H](C)C2CCCCC2)CO3)C(C)c2cc(c3c(c2O)CN([C@@H](C)C2CCCCC2)CO3)C(C)c2cc1c1c(c2O)CN([C@@H](C)C2CCCCC2)CO1 (stereo not given in full),2.65 µM,6.2 µM,3.86 µM,2.85 µM,2.4 µM,3.44 µM,2.98 µM,2.83 µM,2.61 µM,3.23 µM,,1.26 µM,2.93 µM,2.85 µM,3.04 µM,,9.63 µM,5.59 µM,3.49 µM,3.57 µM
CC1=CC(=O)/C(=C/n2c(=S)[nH]c3ccc([N+](=O)[O-])cc32)C(=O)O1,> 100 µM,> 100 µM,> 100 µM,> 100 µM,> 100 µM,> 100 µM,,> 100 µM,> 100 µM,> 100 µM,> 100 µM,> 100 µM,> 100 µM,> 100 µM,> 100 µM,> 100 µM,> 100 µM,4.93 µM,> 100 µM,
O=c1c2cc(S(=O)(=O)Nc3c(Cl)cccc3Cl)ccc2ncn1NS(=O)(=O)c1ccc2ccccc2c1,> 62.5 µM,> 62.5 µM,> 62.5 µM,> 62.5 µM,> 62.5 µM,> 62.5 µM,> 62.5 µM,> 62.5 µM,> 62.5 µM,,> 62.5 µM,> 62.5 µM,> 62.5 µM,> 62.5 µM,> 62.5 µM,> 62.5 µM,> 62.5 µM,> 62.5 µM,> 62.5 µM,
NC(=O)OCc1c(-c2ccccc2)nn(-c2ccccc2)c1COC(N)=O,> 100 µM,> 100 µM,> 100 µM,> 100 µM,> 100 µM,> 100 µM,> 100 µM,> 100 µM,,> 100 µM,,> 100 µM,> 100 µM,> 100 µM,> 100 µM,> 100 µM,,,> 100 µM,
COc1cc2c(cc1OC)C(=O)/C(=C/c1ccc([N+](=O)[O-])cc1)CC2,> 10 µM,> 10 µM,> 10 µM,> 10 µM,> 10 µM,> 10 µM,> 10 µM,> 10 µM,> 10 µM,> 10 µM,> 10 µM,> 10 µM,> 10 µM,> 10 µM,> 10 µM,> 10 µM,> 10 µM,> 10 µM,> 10 µM,
O=C(c1ccccc1)C1C[C@H]2CO[C@H](c3ccccc3)N2C1=O (stereo not given in full),> 100 µM,> 100 µM,> 100 µM,> 100 µM,> 100 µM,> 100 µM,> 100 µM,> 100 µM,> 100 µM,> 100 µM,,> 100 µM,> 100 µM,> 100 µM,> 100 µM,> 100 µM,> 100 µM,,> 100 µM,
CC(C)N1[C@@H]2CCCC[C@H]2N(C(C)C)P1(=O)C(=O)/C=C/c1ccccc1,5.05 µM,8.17 µM,9.02 µM,7.33 µM,3.46 µM,18.3 µM,2.33 µM,16.5 µM,4.37 µM,,13.7 µM,8.03 µM,5.74 µM,6.53 µM,3.82 µM,59.9 µM,16.1 µM,4.84 µM,14.5 µM,16.9 µM
Cc1ccc(S(=O)(=O)Nn2c(O)c(C#N)c(-c3ccc(N(C)C)cc3)c(C#N)c2=O)cc1,> 50 µM,> 50 µM,> 50 µM,> 50 µM,> 50 µM,> 50 µM,> 50 µM,> 50 µM,> 50 µM,,> 50 µM,> 50 µM,,> 50 µM,> 50 µM,> 50 µM,> 50 µM,> 50 µM,> 50 µM,> 50 µM
"COc1ccc(CNC(=O)[C@@H]2CCCN2C(=O)[C@@H]2CCCN2C(=O)[C@H](C(C)C)N(C)C(=O)[C@@H](NC(=O)[C@H](C(C)C)N(Cc2ccccc2)Cc2ccccc2)C(C)C)cc1OC (Bn2Val-V[NMeV]PP-{NH(3,4-diMeO-benzyl)})",38.7 µM,34.5 µM,29.7 µM,> 48.1 µM,30.3 µM,30.7 µM,46.2 µM,45.7 µM,13.4 µM,48.3 µM,32.3 µM,20.7 µM,27.6 µM,28.9 µM,30.5 µM,,72.2 µM,6.17 µM,34.5 µM,31.6 µM
CCOC(=O)c1cc(C#N)[nH]c1-c1ccsc1,> 100 µM,> 100 µM,> 100 µM,57.1 µM,> 100 µM,> 100 µM,77.3 µM,87.8 µM,> 100 µM,,> 100 µM,95.1 µM,96 µM,> 100 µM,> 100 µM,> 100 µM,53.1 µM,41.5 µM,> 100 µM,> 100 µM
